Source: PubChem BioAssay (NCI)
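Assay format: 96-well plates, 48-hour exposure. GI50 = concentration required for 50% inhibition of growth. Definition used: TGI = concentration required for complete inhibition of growth.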

Tests used:
Test in all cases: NCI tumour cell line growth inhibition, 48 h
CAKI-1 renal = test system: CAKI-1 renal
CCRF-CEM leukemia = test system: CCRF-CEM leukemia
HCT-15 colon = test system: HCT-15 colon
IGROV1 ovarian = test system: IGROV1 ovarian
OVCAR-3 ovarian = test system: OVCAR-3 ovarian
RXF 393 renal = test system: RXF 393 renal
SF-539 CNS = test system: SF-539 CNS
SNB-19 CNS = test system: SNB-19 CNS
NCI-H226 lung = test system: NCI-H226 lung
SNB-75 CNS = test system: SNB-75 CNS

Structure (SMILES) | GI50 (CAKI-1 renal) [nM] | TGI (CAKI-1 renal) [µM] | GI50 (CCRF-CEM leukemia) [nM] | TGI (CCRF-CEM leukemia) [µM] | GI50 (HCT-15 colon) [nM] | TGI (HCT-15 colon) [µM] | GI50 (IGROV1 ovarian) [nM] | TGI (IGROV1 ovarian) [µM] | GI50 (OVCAR-3 ovarian) [nM] | TGI (OVCAR-3 ovarian) [µM] | GI50 (RXF 393 renal) [nM] | TGI (RXF 393 renal) [µM] | GI50 (SF-539 CNS) [nM] | TGI (SF-539 CNS) [µM] | GI50 (SNB-19 CNS) [µM] | TGI (SNB-19 CNS) [µM] | TGI (NCI-H226 lung) [µM] | TGI (SNB-75 CNS) [µM]
Cc1ccc(S(=O)(=O)Nc2ccc(-c3cc(-c4cccc(F)c4)c(C#N)c(N)n3)cc2)cc1 | 1600 | 3.16 | 2260 | 30.8 | 1880 | 4.86 | 1350 | 2.75 | 1630 | 3.12 | 1440 | 2.79 | 1560 | 3.02 | 3.15 | 11.6 | – | –
CCN(CC)CCn1c2ccccc2c(=O)c2c(OC)ccc(OC)c21 | – | > 100 | – | > 100 | – | > 100 | – | – | – | > 100 | – | 81.5 | – | > 100 | – | > 100 | 97.3 | –
CC1C2CC=CC(=O)[C@@]2(C)CCC12OCCO2 (stereo partly drawn) | – | > 100 | – | > 100 | – | – | – | > 100 | – | > 100 | – | > 100 | – | > 100 | – | > 100 | > 100 | > 100
O=C(O)CCC(C(=O)O)N1C(=O)C2C3CCC(C3)C2C1=O (stereo not drawn) | – | > 100 | – | – | – | > 100 | – | > 100 | – | > 100 | – | > 100 | – | > 100 | – | > 100 | > 100 | > 100
COc1ccc2c(c1OC(C)=O)C1=CC(=O)CCC13CCNC3C2 (stereo not drawn) | – | > 100 | – | > 100 | – | > 100 | – | > 100 | – | > 100 | – | > 100 | – | – | – | > 100 | > 100 | > 100
CCOCc1cc(=O)c2c(OC)cc3c(c2o1)CCC(C)(C)O3 | – | – | – | > 100 | – | > 100 | – | > 100 | – | > 100 | – | > 100 | – | > 100 | – | – | – | > 100
CC(C)C1N2CCCCC2[C@@H]2c3[nH]c4ccccc4c3CCN12 (stereo partly drawn) | – | > 100 | – | > 100 | – | > 100 | – | > 100 | – | > 100 | – | > 100 | – | > 100 | – | > 100 | – | > 100
CCOC(=O)C(=O)Nc1ccccc1C(C)C | – | > 100 | – | > 100 | – | > 100 | – | > 100 | – | > 100 | – | – | – | > 100 | – | > 100 | > 100 | > 100
O=C1NC(c2cccc(OCc3ccccc3)c2)Nc2ccccc21 (stereo not drawn) | – | > 32.8 | – | 3.99 | – | 0.702 | – | 93.7 | – | 0.558 | – | – | – | 0.708 | – | > 100 | 2.44 | 0.896
O=c1cc(-c2ccccc2)[nH]c2cc(Cl)ccc12 | – | 11.4 | – | 11.4 | – | 15.8 | – | > 100 | – | – | – | 1.08 | – | 1.99 | – | 6.44 | 56 | 6.07
c1ccc(N/N=C2\NN=C(c3ccccc3)CS2)cc1 | – | 8.32 | – | 54.9 | – | 20.9 | – | 32.3 | – | 50.9 | – | 25.1 | – | 41.7 | – | 85.9 | > 100 | –
